Data on five compounds can be found in ChEMBL document CHEMBL5543058, “The application of PROTAC in HDAC” (Eur J Med Chem, 2023).

pIC50: −log10 of the molar value.

In assay [1] the target is Protein cereblon/Histone deacetylase 8 (Homo sapiens, UniProt Q9BY41+Q96SW2). As to the kind of experiment: PROTAC activity at HDAC8/CRBN in human A549 cells assessed as degradation of HDAC8 by Western blot analysis. In kind it is cell-based. (In western blotting, separated proteins are transferred to a membrane and probed.)
Chain of Protein cereblon/Histone deacetylase 8 (Q96SW2 whole entry, one chain of several): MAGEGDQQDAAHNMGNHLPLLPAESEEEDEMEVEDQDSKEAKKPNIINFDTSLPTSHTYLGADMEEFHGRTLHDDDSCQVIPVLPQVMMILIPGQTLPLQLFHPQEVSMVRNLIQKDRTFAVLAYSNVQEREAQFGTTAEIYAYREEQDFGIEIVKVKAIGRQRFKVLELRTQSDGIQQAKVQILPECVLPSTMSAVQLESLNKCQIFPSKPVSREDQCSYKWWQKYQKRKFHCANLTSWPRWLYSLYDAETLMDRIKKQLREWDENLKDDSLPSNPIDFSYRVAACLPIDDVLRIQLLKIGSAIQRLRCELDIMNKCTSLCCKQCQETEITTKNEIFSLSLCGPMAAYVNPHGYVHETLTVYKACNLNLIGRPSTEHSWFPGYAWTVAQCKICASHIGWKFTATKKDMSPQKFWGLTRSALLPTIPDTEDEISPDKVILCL
Assay [2] deals with A549. Briefly: Growth inhibition of human A549 cells incubated for 72 hrs by MTT assay. The format is functional. In general terms: Tetrazolium dyes change colour on reduction, which living cells bring about.
For assay [3], the target named is T1, Histone deacetylase 8 (Homo sapiens) (UniProt Q9BY41).
T1 sequence (whole entry): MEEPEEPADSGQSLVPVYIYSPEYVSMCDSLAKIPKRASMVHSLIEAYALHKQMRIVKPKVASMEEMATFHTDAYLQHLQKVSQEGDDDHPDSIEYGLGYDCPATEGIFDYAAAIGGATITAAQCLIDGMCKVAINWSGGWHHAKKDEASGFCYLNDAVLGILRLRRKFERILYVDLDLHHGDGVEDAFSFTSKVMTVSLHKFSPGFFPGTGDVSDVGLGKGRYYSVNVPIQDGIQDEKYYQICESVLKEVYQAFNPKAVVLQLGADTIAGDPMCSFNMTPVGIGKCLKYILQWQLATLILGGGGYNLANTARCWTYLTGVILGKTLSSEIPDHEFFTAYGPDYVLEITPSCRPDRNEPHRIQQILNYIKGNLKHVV
Briefly: Induction of HDAC8 degradation in human A549 cells assessed as maximum degradation at 0.1 to 160 uM measured after 10 hrs by Western blot analysis relative to control. In kind it is cell-based. The following applies: dose 0.1-160 µM.

Assay [4] has as its system A549. Briefly: Antiproliferative activity against human A549 cells assessed as inhibition of cell growth measured after 48 hrs by SRB assay. In kind it is functional. (Sulforhodamine B stains cellular protein and so reports cell mass.)
The test system of assay [5] is Jurkat. As to the kind of experiment: Growth inhibition of human Jurkat cells. In kind it is functional.
In assay [6] the target is T2, Histone deacetylase 8 (Homo sapiens, UniProt Q9BY41).
T2 sequence (Q9BY41 whole entry): T1 sequence (whole entry)
Briefly: Inhibition of HDAC8 (unknown origin) using acetyl-Gly-Ala-(N-acetyl-Lys)-amino-4-methylcoumarin as substrate measured after 30 mins by fluorescence assay.

Assay [7] addresses von Hippel-Lindau disease tumor suppressor/Histone deacetylase 2 (Homo sapiens, UniProt Q92769+P40337). Briefly: Protac activity at VHL/LSD1/HDAC2/CoREST complex interaction in human HCT-116 cells assessed as induction of HDAC2 degradation by fluorescence based assay. The format is cell-based.
The target of assay [8] is von Hippel-Lindau disease tumor suppressor/Histone deacetylase 1 (Homo sapiens, UniProt Q13547+P40337). As to the kind of experiment: Protac activity at VHL/LSD1/HDAC1/CoREST complex interaction in human HCT-116 cells assessed as HDAC1 degradation by fluorescence based assay. The format is cell-based.
Chain of von Hippel-Lindau disease tumor suppressor/Histone deacetylase 1 (Q13547 whole entry): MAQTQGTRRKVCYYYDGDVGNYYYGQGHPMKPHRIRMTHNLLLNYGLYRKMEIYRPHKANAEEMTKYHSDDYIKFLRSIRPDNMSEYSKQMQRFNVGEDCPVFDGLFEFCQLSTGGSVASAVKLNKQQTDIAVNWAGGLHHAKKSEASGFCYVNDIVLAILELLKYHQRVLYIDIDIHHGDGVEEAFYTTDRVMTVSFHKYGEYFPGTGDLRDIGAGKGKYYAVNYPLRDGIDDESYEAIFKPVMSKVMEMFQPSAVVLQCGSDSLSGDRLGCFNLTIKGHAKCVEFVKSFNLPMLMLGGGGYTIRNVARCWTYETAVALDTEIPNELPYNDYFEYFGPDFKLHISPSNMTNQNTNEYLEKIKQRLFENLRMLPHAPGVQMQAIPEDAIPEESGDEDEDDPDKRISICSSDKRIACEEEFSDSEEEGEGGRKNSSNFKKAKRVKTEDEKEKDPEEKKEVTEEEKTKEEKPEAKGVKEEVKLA
Chain of von Hippel-Lindau disease tumor suppressor/Histone deacetylase 1 (P40337 whole entry): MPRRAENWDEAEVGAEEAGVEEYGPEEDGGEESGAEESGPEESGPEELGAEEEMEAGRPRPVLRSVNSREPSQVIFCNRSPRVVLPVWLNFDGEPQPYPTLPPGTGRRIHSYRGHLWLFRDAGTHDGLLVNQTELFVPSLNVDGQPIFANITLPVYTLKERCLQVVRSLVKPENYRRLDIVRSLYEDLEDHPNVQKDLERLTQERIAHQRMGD
Assay [9] deals with von Hippel-Lindau disease tumor suppressor/Histone deacetylase 3 (Homo sapiens, UniProt O15379+P40337). As to the kind of experiment: Protac activity at VHL/LSD1/HDAC3/CoREST complex interaction in human HCT-116 cells assessed as induction of HDAC3 degradation by fluorescence based assay. In kind it is cell-based.
Chain of von Hippel-Lindau disease tumor suppressor/Histone deacetylase 3 (O15379 whole entry): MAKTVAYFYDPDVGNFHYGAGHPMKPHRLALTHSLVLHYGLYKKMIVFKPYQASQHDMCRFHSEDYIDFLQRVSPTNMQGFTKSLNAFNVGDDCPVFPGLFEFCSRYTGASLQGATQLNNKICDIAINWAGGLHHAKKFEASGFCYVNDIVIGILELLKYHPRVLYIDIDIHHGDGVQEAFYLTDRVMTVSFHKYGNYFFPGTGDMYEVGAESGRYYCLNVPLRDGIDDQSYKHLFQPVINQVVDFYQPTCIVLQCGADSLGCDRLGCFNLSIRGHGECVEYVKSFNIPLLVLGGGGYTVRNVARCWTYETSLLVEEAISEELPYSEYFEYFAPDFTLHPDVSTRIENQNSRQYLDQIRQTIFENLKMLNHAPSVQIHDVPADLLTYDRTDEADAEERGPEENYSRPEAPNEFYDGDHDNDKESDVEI
Chain of von Hippel-Lindau disease tumor suppressor/Histone deacetylase 3 (P40337 whole entry): as the sequence (P40337 whole entry) above

Chain of von Hippel-Lindau disease tumor suppressor/Histone deacetylase 2 (Q92769 whole entry): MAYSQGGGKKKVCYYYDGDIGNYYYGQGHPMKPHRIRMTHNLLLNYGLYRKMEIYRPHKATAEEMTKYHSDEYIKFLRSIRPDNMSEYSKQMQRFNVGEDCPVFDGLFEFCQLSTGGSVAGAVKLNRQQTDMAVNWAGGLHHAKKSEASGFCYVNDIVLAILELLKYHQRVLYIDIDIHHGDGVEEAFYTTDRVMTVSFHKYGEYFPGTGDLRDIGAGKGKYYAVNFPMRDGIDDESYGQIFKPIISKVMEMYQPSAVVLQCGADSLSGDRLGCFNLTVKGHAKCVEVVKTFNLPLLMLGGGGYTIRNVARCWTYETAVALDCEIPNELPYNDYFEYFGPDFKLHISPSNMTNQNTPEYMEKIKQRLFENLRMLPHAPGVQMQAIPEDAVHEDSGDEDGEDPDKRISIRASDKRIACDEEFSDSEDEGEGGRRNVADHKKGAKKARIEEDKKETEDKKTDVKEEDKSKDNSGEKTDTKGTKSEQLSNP
Chain of von Hippel-Lindau disease tumor suppressor/Histone deacetylase 2 (P40337 whole entry): as the sequence (P40337 whole entry) above

Usually DC50 stands for the midpoint of the concentration-degradation curve. Broadly, the GI50 is the concentration that inhibits growth by half. One may read the Emax as the size of the effect at its maximum, as opposed to the concentration needed. Take `O=C1CCC(N2C(=O)c3cccc(NCc4cn(CCOCCOc5ccc(Cn6ccc7ccc(C(=O)NO)cc76)cc5)nn4)c3C2=O)C(=O)N1` (stereo unspecified): the DC50 in assay [1] was found to be 0.58 µM. In assay [2], this compound had a 50% growth inhibitory concentration (GI50) of 9.55 µM. The Emax in assay [3] was 95%.

With `COc1ccc(Cn2ccc3ccc(C(=O)NO)cc32)cc1`, the GI50 in assay [4] stood at 15.8 µM.

By pIC50 is commonly meant the negative decadic logarithm of the IC50, by convention in mol/L. High values mean a small IC50, low ones a large IC50. On to `O=C(NO)c1cccc(-n2cc(CSc3ccccc3)nn2)c1`, for which, in assay [5], the GI50 came out at 7.09 µM. In addition, in [6], the pIC50 is 7.28.

For `O=C1CCC(N2C(=O)c3cccc(NCCCCCCCCCCCNC(=O)c4cccc(SCc5cn(-c6cccc(C(=O)NO)c6)nn5)c4)c3C2=O)C(=O)N1` (stereo unspecified), growth in assay [5] was halved (GI50) at 0.78 µM. For the same compound, in assay [6], the pIC50 was 6.43.

Regarding `Cc1ncsc1-c1ccc(CNC(=O)[C@@H]2C[C@@H](O)CN2C(=O)[C@@H](NC(=O)CCCCCCCCCCC(=O)Nc2ccc(C(=O)Nc3ccccc3N)cc2)C(C)(C)C)cc1`, the 50% degradation concentration (DC50) in assay [7], in assay [8] and in [9] was 1 µM each time.
